Source: patent publication US12171728B2, “Mixture of resveratrol supported on metal hydroxide and non-supported pure resveratrol for treating female fertility” (priority 2018, dated 2024)

Tests used:
[1] = Pharmacokinetics in humans of resveratrol formulations (plasma profile of total resveratrol); type: in vivo, human; conditions: voluntary subjects, 180 mg
Experimental: FIG. 1. Plasma profile of total resveratrol (free resveratrol+its metabolites) following the administration to voluntary subjects of a single dose of resveratrol of 180 mg […]® (circles), from pure resveratrol not supported (squares) and a simulation of the combination of resveratrol from […]® and pure resveratrol not supported in the ratio 1:2 (triangles).
The pharmacokinetics in humans of different types of resveratrol formulations. The administration of 180 mg Resveratrol supported on magnesium hydroxide ([…]®) in voluntary subjects leads to a transient increase in total concentration (free resveratrol+resveratrol metabolites) plasmatic resveratrol with Time at the peak concentration of 30 minutes from administration, followed by a decay of about 40% in the period up to 180 minutes from administration.

female fertility = assay: Case reports of fertility enhancement in infertile/sub-fertile women; type: in vivo, human
From the text: A person is […] and is classified as infertile since has tried to conceive for more than 12 months without the initiation of a state of pregnancy. They are not affected by polycystic ovary syndrome according to the Rotterdam criteria.
The patient, a person classified as being sub-fertile because they have been trying to conceive for more than 12 months unsuccessfully. They are not affected by metabolic disorders such as polycystic ovary syndrome according to the Rotterdam criteria.
A person is […] and is classified as a sub-fertile because they have been trying to conceive for more than 12 months without starting a state of pregnancy. It is not affected by metabolic disorders such as polycystic ovary syndrome according to the Rotterdam criteria.

In the case of Oc1ccc(C=Cc2cc(O)cc(O)c2)cc1 [pure resveratrol, resveratrol], the “Total plasma concentration of resveratrol compared with REVIFAST” value [1] is reported as “absolute lesser value”, the Pregnancy outcome (female fertility; case n1, infertile, 100 mg per day for 3 months) is reported as “without having a pregnancy” and the Pregnancy outcome (female fertility; case n1, dosage doubled to 200 mg) is reported as “has not changed its situation”.
